Experimental data as given in patent US4395405A, “Alkyl-ketohexopyranoside derivatives and method of use” (Hisamitsu Pharmaceutical Co., Inc., priority 1979, dated 1983).

What was measured:
IgG and IgM [1] = experiment: Amount of antibodies formed in rats, PHA (phytohemaglutinin) reaction; type: in vivo, rats of wistar strain
Procedure: (§1) Effects on the formation of homocytotropic antibodies in rats
(§2) An experiment was carried out in accordance with the Tada and Okumura's method (J. Immunol., Vol. 106, p 1002, 1971).
(§3) Groups each consisting of 8-9 rats of wistar strain were used in this experiment.
(§4) As shown in Tables 2-5, to the four legs of the rats were injected 1 mg of dinitrophenylated extract of ascaris suum (DNP-As) as protein and 10^10 cells of vaccinum pertussis (B. Pertussis) for sensitization, after which the compounds of this invention were administered to the injected rats for 5 days. Eight to nine days after the sensitization, bloodletting was effected on these rats to collect their serum for estimating the amount of antibodies formed using passive cutaneous anaphylaxis (PCA) reactions and phytohemaglutinin (PHA) reactions.
(2) Estimation of the amount of antibodies by PHA reaction:
The collected serum was diluted in various concentrations and incubated with sheep red blood cells coupled with DNP-As using bis-diazoated benzydine to determine the dilution of the serum which induced the minimum hemaglutination. […]

IgE antibodies [2] = experiment: Formation of homocytotropic antibodies in mice, PCA reaction; type: in vivo, mice (BALB/c strain), female; conditions: 100 mg/Kg/day for 5 days
Procedure: (§5) The collected serum was diluted in various concentrations and intradermally injected to other rats. Forty-eight (48) hours after the injection, 2 mg of DNP-As as protein and 0.5 ml of a 1% Evans Blue were intravenously injected into these rats to determine the dilution of the serum which induced the minimum extravasted dye. It should be noted that the symbols "*" and "**" in the following Tables indicate significant differences at risks of 5% and 1%, respectively.
(§6) Effects on the formation of homocytotropic antibodies in mice
(§7) Groups each consisting of 5 female mice (BALB/c strain) were used in this experiment. The mice were sensitized with 10 μg of DNP-As as protein and 3 mg of Al(OH)3, after which the test compound was administered to the sensitized mice for 5 days (at a dose of 100 mg/Kg/day). After the sensitization, a sample of serum was collected from the mice and treated in the same manner as in Experiment 1 to determine the amount of antibodies formed. […]

IgE antibodies [3] = experiment: Formation of homocytotropic antibodies in rats, PCA (passive cutaneous anaphylaxis) reaction; type: in vivo, rats of wistar strain
Procedure: as §1, §2, §3, §4
(1) Estimation of the amount of antibodies by PCA reaction:
as §5, with “respectively. […]” for “respectively.”

IgG and IgM [4] = experiment: Amount of antibodies formed in mice, PHA reaction; type: in vivo, mice (BALB/c strain), female; conditions: 100 mg/Kg/day for 5 days
Procedure: The collected serum was diluted in various concentrations and incubated with sheep red blood cells coupled with DNP-As using bis-diazoated benzydine to determine the dilution of the serum which induced the minimum hemaglutination.
as §6, §7

[5] = Acute poisoning test on rats; conditions: rat, in vivo, three weeks
Procedure: (§8) Each of the test compounds was suspended in a physiological solution of sodium chloride containing 0.5% of tragacanth gum to obtain a test suspension. The test suspensions so obtained were administered to rats and mice in various ways. LD50 was calculated from test animals which died in three weeks after the start of the test.

[6] = Acute poisoning test on mice; conditions: mouse, in vivo, three weeks
Procedure: as §8

[7] = Table 5 right half, hypodermic administration, serum 8 days after sensitization, control 3235.9 (2454.7-4265.8)
[8] = Table 7, oral, serum 10 days after sensitization, control 537.0 (436.5-660.7)
[9] = Table 9, hypodermic, serum 37 days after, control 3467.37 (2013.72-3767.04)
[10] = Table 3 right half, hypodermic administration, serum 8 days after sensitization, control 269.2 (218.8-331.1)
[11] = Table 10, oral, serum 10 days after, control 125.9 (95.5-166.0)
[12] = Table 11, hypodermic, serum 9 days after, control 380.2 (269.2-537.0), 100 mg/kg/day
[13] = Table 11, hypodermic, serum 10 days after, control 109.7 (95.5-125.9)
[14] = Table 11, hypodermic, serum 37 days after, control 1071.5 (871.0-1318.3)
[15] = Table 6, oral, serum 10 days after sensitization, control 256 ± 128
[16] = Table 6, oral, serum 21 days after sensitization, control 1024 ± 0
[17] = Table 6, oral, serum 30 days after sensitization, control 299 ± 43
[18] = Table 2, abdominal and oral administration, 5 days, serum 9 days after sensitization, control 169 (119-223)
[19] = Table 11, hypodermic, serum 9 days after, control 380.2 (269.2-537.0)

Row | Compound | PHA of rat: dilution of the serum which induced the minimum hemaglutination (IgG and IgM [1]; [7]) | PCA of mice (serum dilution) (IgE antibodies [2]; [8]) | PCA of mice (serum dilution) (IgE antibodies [2]; [9]) | PCA of rat: dilution of the serum which induced the minimum extravasted dye (IgE antibodies [3]; [10]) | PHA of mice (serum dilution) (IgG and IgM [4]; [11]) | PHA of mice (serum dilution) (IgG and IgM [4]; [12]) | PHA of mice (serum dilution) (IgG and IgM [4]; [13]) | PHA of mice (serum dilution) (IgG and IgM [4]; [14]) | LD50 at 504 h ([5]; ip, abdominally, female) [mg/kg] | LD50 at 504 h ([5]; ip, abdominally, male) [mg/kg] | LD50 at 504 h ([5]; iv, intravenously, female) [mg/kg] | LD50 at 504 h ([5]; iv, intravenously, male) [mg/kg] | LD50 at 504 h ([5]; po, orally, female) [mg/kg] | LD50 at 504 h ([5]; po, orally, male) [mg/kg] | LD50 at 504 h ([5]; sc, hypodermically, female) [mg/kg] | LD50 at 504 h ([5]; sc, hypodermically, male) [mg/kg] | LD50 at 504 h ([6]; ip, abdominally, female) [mg/kg] | LD50 at 504 h ([6]; ip, abdominally, male) [mg/kg] | LD50 at 504 h ([6]; iv, intravenously, female) [mg/kg] | LD50 at 504 h ([6]; iv, intravenously, male) [mg/kg] | also measured
1 | CCCCCOC1(CO)OCC(O)C(O)C1O [Compound No. 11, n-pentyl-α-L-sorbopyranoside] | 3467.4 (2630.3-4570.8) | 501.2 | 177.83 | 154.9 (134.9-177.8) | 177.8 | 354.8 (288.4-457.1) | 109.7 (83.2-144.5) | 1621.8 (1318.3-1995.3) |  |  |  |  |  |  |  |  |  |  |  |  | 
2 | CCCCCOC1(CO)OCC(O)C(O)C1O [Compound No. 4, n-pentyl-β-D-fructopyranoside] |  |  | 177.83 |  |  | 309.0 (251.2-380.2) |  |  | > 2780 | > 2780 | 660 | 670 | > 4000 | > 4000 | 1300 | 1500 | 2360 | 2590 | 930 | 760 | LD50 at 504 h ([6]; po, orally, female): 3790 mg/kg; LD50 at 504 h ([6]; po, orally, male): 3800 mg/kg; LD50 at 504 h ([6]; sc, hypodermically, female): 1080 mg/kg; LD50 at 504 h ([6]; sc, hypodermically, male): 1020 mg/kg; PHA of rat: dilution of the serum which induced the minimum hemaglutination (IgG and IgM [1]; Table 4, oral administration, serum 8 days after the sensitization, control 320 (270-370)): 3250; PHA of rat: dilution of the serum which induced the minimum hemaglutination (IgG and IgM [1]; Table 5 left half, hypodermic administration, serum 8 days after sensitization, control 1318.3 (933.3-1862.1)): 2454.7; PCA of mice (serum dilution) (IgE antibodies [2]; [15]): 88 ± 24; PCA of mice (serum dilution) (IgE antibodies [2]; [16]): 328 ± 108; PCA of mice (serum dilution) (IgE antibodies [2]; [17]): 272 ± 80; PCA of rat: dilution of the serum which induced the minimum extravasted dye (IgE antibodies [3]; Table 2, abdominal and oral administration, 5 days, serum 8 days after sensitization, control 237 (169-337)): 52.0; PCA of rat: dilution of the serum which induced the minimum extravasted dye (IgE antibodies [3]; [18]): 51.9; PCA of rat: dilution of the serum which induced the minimum extravasted dye (IgE antibodies [3]; Table 3 left half, hypodermic administration, serum 8 days after sensitization, control 144.5 (117.5-177.8)): 102.4
3 | CC(C)CCOC1(CO)OCC(O)C(O)C1O [Compound No. 5, isopentyl-β-D-fructopyranoside] |  |  |  |  |  |  |  |  |  |  |  |  |  |  |  |  |  |  |  |  | PCA of mice (serum dilution) (IgE antibodies [2]; [15]): 316 ± 86; PCA of mice (serum dilution) (IgE antibodies [2]; [16]): 480 ± 142; PCA of mice (serum dilution) (IgE antibodies [2]; [17]): 448 ± 64; PCA of rat: dilution of the serum which induced the minimum extravasted dye (IgE antibodies [3]; [18]): 90.5
4 | CC(C)COC1(CO)OCC(O)C(O)C1O [Compound No. 10, isobutyl-α-L-sorbopyranoside] | 5248.1 (3715.4-7413.1) | 501.2 |  | 177.8 (134.9-234.4) | 109.7 |  | 102.3 (83.2-125.9) | 1148.2 (933.3-1412.5) | ~2000 | ~2000 | 1000 to 2000 | 1000 to 2000 | > 5000 | > 5000 | > 5000 | > 5000 | 500 to 1000 | 500 to 1000 | 1000 to 2000 | 1000 to 2000 | LD50 at 504 h ([6]; po, orally, female): 2000 to 5000 mg/kg; LD50 at 504 h ([6]; po, orally, male): 2000 to 5000 mg/kg; LD50 at 504 h ([6]; sc, hypodermically, female): ~2000 mg/kg; LD50 at 504 h ([6]; sc, hypodermically, male): ~2000 mg/kg; PCA of mice (serum dilution) (IgE antibodies [2]; Table 8, hypodermic, serum 9 days after, control 708.0 (575.4-871.0)): 537.0; PCA of mice (serum dilution) (IgE antibodies [2]; Table 8, hypodermic, serum 10 days after, control 537.0 (380.2-758.6)): 708.0; PCA of mice (serum dilution) (IgE antibodies [2]; Table 8, hypodermic, serum 37 days after, control 2818.4 (1862.1-4265.8)): 1513.6; PHA of mice (serum dilution) (IgG and IgM [4]; [19]): 154.9 (125.9-190.6)
5 | CC(C)CCOC1(CO)OCC(O)C(O)C1O [Compound No. 12, isopentyl-2-L-sorbopyranoside] | 6025.6 (4897.8-7413.1) | 269.2 |  | 234.4 (204.2-269.2) | 109.7 |  | 144.5 (125.9-166.0) | 1230.3 (871.0-1737.8) |  |  |  |  |  |  |  |  |  |  |  |  | PHA of mice (serum dilution) (IgG and IgM [4]; [19]): 218.8 (109.7-436.5)
